Assay results: patent publication US20020120102A1, “Use of dendroaspin as a scaffold for non-dendroaspin domains” (priority 2000, published 2002)
Ends that are not written are not given here.

Tested on: washed platelets
Assay: ADP-induced platelet aggregation (light transmission)
Format: cell-based
Conditions: 10 μM ADP, 1.67 mg/ml fibrinogen, washed human platelets
Procedure: Measurement of platelet aggregation—Platelet aggregation was measured by the increase in light transmission as described previously (Lu et al. (1993), supra; Lu et al. (1994) Biochem. J. 304, 929-936). Briefly, platelet rich plasma (PRP) was prepared from citrated human blood, obtained from healthy individuals, by centrifugation at 200×g for 15 min. Washed platelets were prepared from PRP and resuspended in adhesion/aggregation buffer (145 mM NaCl, 5 mM KCl, 1 mM MgCl2, 2 mM CaCl2, 10 mM glucose, 3.5 mg/ml BSA and 10 mM HEPES, pH 7.35) and adjusted to a count of 3×10^8/ml. Platelet aggregation (320 μl incubations) was induced with 10 μM ADP in the presence of 1.67 mg/ml fibrinogen and measured using a Payton Dual-Aggregometer linked to a chart recorder.

## KGD-dendroaspin: dendroaspin scaffold in which the native RGD motif is replaced by KGD; recombinant, expressed in E. coli (RICYNHLGTKPPTTETCQEDSCYKNIWTFDNIIRRGCGCFTPKGDMPGPYCCESDKCNL; ends and bridges not checked; cysteine pairing not given here)
  inhibition of ADP-induced platelet aggregation: potent inhibition
